Assay [1] relates to HepG2. The assay is described as follows: Cytotoxicity against human HepG2 cells after 72 hrs by MTT assay. Format: functional, cell-based. To be noted: HepG2, 72 h.
The subject of assay [2] is A549. The assay is described as follows: Cytotoxicity against human A549 cells after 72 hrs by MTT assay. To be noted: A549, 72 h. Format: functional, cell-based.
Assay [3] has as its system L02. The assay is described as follows: Cytotoxicity against human L02 cells after 72 hrs by MTT assay. Format: cell-based. To be noted: L02, 72 h.
The species named for assay [4] is Homo sapiens. The experiment in a line: Inhibition of NADH-ubiquinone oxidoreductase (unknown origin).
For assay [5], the target named is AMP-activated protein kinase, AMPK (Homo sapiens) (UniProt P54646+O43741+P54619+Q9UGJ0+Q9Y478+Q13131+Q9UGI9). The assay is described as follows: Activation of AMPK in human HepG2 cells after 24 hrs by Western blot analysis. Format: cell-based.
Assay [6] deals with HepG2. The assay is described as follows: Induction of apoptosis in human HepG2 cells assessed as late apoptotic cells at 0.3 uM after 40 hrs by Annexin-V-FITC/propidium iodide staining based flow cytometry (reference value: 7.6%). Format: functional.
Assay [7] relates to HepG2. The assay is described as follows: Induction of intracellular ATP depletion in human HepG2 cells at 0.3 uM after 44 hrs by luminescence based spectrophotometric method. Format: functional, cell-based.
Assay [8] deals with HepG2. The assay is described as follows: Induction of apoptosis in human HepG2 cells assessed as caspase-3 cleavage at 0.1 to 30 uM after 24 hrs by Western blot analysis. Format: functional, cell-based.
In assay [9] the test system is HepG2. The assay is described as follows: Reduction in Bcl2 to bax ratio in human HepG2 cells at 0.1 to 30 uM after 24 hrs by Western blot analysis. Format: functional, cell-based.
Assay [10] concerns HepG2. The assay is described as follows: Induction of apoptosis in human HepG2 cells assessed as early apoptotic cells at 3 uM after 40 hrs by Annexin-V-FITC/propidium iodide staining based flow cytometry (reference value: 2.8%). Format: functional.
The species entered for assay [11] is Homo sapiens. The assay is described as follows: Inhibition of NADH-ubiquinone oxidoreductase (unknown origin) at 50 uM.
Assay [12] relates to HepG2. The assay is described as follows: Induction of apoptosis in human HepG2 cells assessed as late apoptotic cells at 3 uM after 40 hrs by Annexin-V-FITC/propidium iodide staining based flow cytometry (reference value: 7.6%). Format: functional.
The test system of assay [13] is HepG2. The assay is described as follows: Induction of apoptosis in human HepG2 cells assessed as early apoptotic cells at 0.3 uM after 40 hrs by Annexin-V-FITC/propidium iodide staining based flow cytometry (reference value: 2.8%). Format: functional.
Assay [14] relates to HepG2. The experiment in a line: Induction of apoptosis in human HepG2 cells assessed as necrotic cells at 3 uM after 40 hrs by Annexin-V-FITC/propidium iodide staining based flow cytometry (reference value: 7%). Format: functional.
The test system of assay [15] is HepG2. The assay is described as follows: Induction of apoptosis in human HepG2 cells assessed as live cells at 3 uM after 40 hrs by Annexin-V-FITC/propidium iodide staining based flow cytometry (reference value: 82.6%). Format: functional.
For assay [16], the system named is HepG2. The assay is described as follows: Induction of apoptosis in human HepG2 cells assessed as live cells at 0.3 uM after 40 hrs by Annexin-V-FITC/propidium iodide staining based flow cytometry (reference value: 82.6%). Format: functional.
Assay [17] relates to HepG2. The assay is described as follows: Induction of apoptosis in human HepG2 cells assessed as PARP cleavage at 0.1 to 30 uM after 24 hrs by Western blot analysis. Format: functional, cell-based.
Assay [18] relates to HepG2. The experiment in a line: Induction of apoptosis in human HepG2 cells assessed as necrotic cells at 0.3 uM after 40 hrs by Annexin-V-FITC/propidium iodide staining based flow cytometry (reference value: 7%). Format: functional.
Assay [19] concerns HepG2. The assay is described as follows: Induction of intracellular ATP depletion in human HepG2 cells at 3 uM after 44 hrs by luminescence based spectrophotometric method. Format: functional, cell-based.

Activity calls are given as the source filed them. No cut-off for these calls is given here. A value given as a limit tells only on which side of the number the result lay.

For the molecule `COc1ccc(C(=O)C2CCN(C(=O)c3ccc(C(=O)NC4CCN(Cc5ccc(C#N)cc5)CC4)cn3)CC2)cc1`, the IC50 is 5.2 µM in [1], 19.5 µM in assay [2] and 25.9 µM in assay [3]. Moreover, the inhibition entry in assay [4] was “Dose-dependent effect”. In addition, in assay [5], the result was Active.

In assay [1], `COc1ccc(CN2CCC(NC(=O)COc3ccc4c(=O)c(-c5ccccc5)coc4c3)CC2)cc1` displayed an IC50 of more than 20 µM.

Turning to `O=C(COc1ccc2c(=O)cc(-c3ccccc3)oc2c1)NC1CCN(Cc2ccccc2)CC1`, the IC50 in assay [1] was 16.7 µM.

For `O=C(COc1ccc2c(=O)cc(-c3ccccc3)oc2c1)N1CCN(Cc2ccccc2)CC1`, the half-inhibitory concentration (IC50) in assay [1] was more than 20 µM.

`COc1ccc(CN2CCC(NC(=O)C(C)(C)Oc3ccc4c(=O)cc(-c5ccccc5)oc4c3)CC2)cc1` showed a 50% inhibitory concentration (IC50) in assay [1] of 8.7 µM.

In turn, `N#Cc1ccc(CN2CCC(NC(=O)COc3ccc(-c4cc(=O)c5ccccc5o4)cc3)CC2)cc1` came in with an IC50 in assay [1] of 6.7 µM.

`O=C(COc1ccc2c(=O)cc(-c3ccccc3)oc2c1)NC1CCN(Cc2ccc(C(F)(F)F)cc2)CC1` showed an IC50 in assay [1] of 7.2 µM.

Consider `O=C(COc1ccc2c(=O)c(-c3ccccc3)coc2c1)N1CCN(Cc2ccccc2)CC1`, for which the IC50 in [1] was more than 20 µM.

For `CC(C)(Oc1ccc2c(=O)cc(-c3ccccc3)oc2c1)C(=O)NC1CCN(Cc2ccccc2)CC1`, the IC50 in assay [1] came to 14 µM.

Turning to `O=C(COc1ccc(-c2cc(=O)c3ccccc3o2)cc1)NC1CCN(Cc2ccccc2)CC1`, inhibition in assay [1] was half-maximal at 15.5 µM (IC50).

In turn, `CC(C)(Oc1ccc2c(=O)c(-c3ccccc3)coc2c1)C(=O)NC1CCN(Cc2ccccc2)CC1` displayed an IC50 in assay [1] of more than 20 µM.

For `CC(C)(Oc1ccc2c(=O)cc(-c3ccccc3)oc2c1)C(=O)NC1CCN(Cc2ccc(C(F)(F)F)cc2)CC1`, the 50% inhibitory concentration (IC50) in [1] is more than 20 µM.

The molecule `N#Cc1ccc(CN2CCC(NC(=O)COc3ccc4c(=O)cc(-c5ccccc5)oc4c3)CC2)cc1` displayed a concentration for half-maximal inhibition (IC50) in assay [1] of 9.3 µM.

For `O=C(COc1ccc(-c2cc(=O)c3ccccc3o2)cc1)NC1CCN(C(=O)c2ccccc2)CC1`, the IC50 in [1] is more than 20 µM.

In [1], `CC(C)(Oc1ccc(-c2cc(=O)c3ccccc3o2)cc1)C(=O)NC1CCN(Cc2ccccc2)CC1` came in with an IC50 of more than 20 µM.

On to `O=C(COc1ccc(-c2cc(=O)c3ccccc3o2)cc1)N1CCN(Cc2ccccc2)CC1`, for which the IC50 in assay [1] is more than 20 µM.

`COc1ccc(CN2CCC(NC(=O)C(C)(C)Oc3ccc(-c4cc(=O)c5ccccc5o4)cc3)CC2)cc1`: the Activity in [6] was found to be 7.3%; in [10], 0%; in [12], 0.2%; in assay [13], 1.6%; in assay [14], 46.4%; in assay [15] it was 53.4%. Also, the Activity entry in assay [5] was “Dose-dependent effect”; in assay [16] it was 80.2%; in assay [18], 11%. Besides, the values for the concentration for half-maximal inhibition (IC50) in assay [1], in [2] and in assay [3] were 2.8 µM, 40 µM and 17.6 µM, respectively. In addition, the outcome in [7], in [8] and in [17] was inactive. Besides, the outcome in assay [9] and in [19] was Active. For the same molecule, the inhibition entry in [11] was “Active”. The inhibition result in assay [4] was “Dose-dependent effect”.

In [1], `N#Cc1ccc(CN2CCC(NC(=O)COc3ccc4c(=O)c(-c5ccccc5)coc4c3)CC2)cc1` displayed an IC50 of more than 20 µM.

For the molecule `COc1ccc(CN2CCC(NC(=O)COc3ccc(-c4cc(=O)c5ccccc5o4)cc3)CC2)cc1`, half-maximal inhibition in assay [1] (IC50) required 6.8 µM.

In assay [1], `O=C(COc1ccc2c(=O)c(-c3ccccc3)coc2c1)NC1CCN(Cc2ccccc2)CC1` registered an IC50 of more than 20 µM.

For the molecule `O=C(COc1ccc2c(=O)cc(-c3ccccc3)oc2c1)NC1CCN(C(=O)c2ccccc2)CC1`, in assay [1], the IC50 was more than 20 µM.

The values above are taken from ChEMBL document CHEMBL4229436, “Synthesis and biological evaluation of Complex I inhibitor R419 and its derivatives as anticancer agents in HepG2 cells” (Bioorg Med Chem Lett, 2018).
